Measured values: PMC9343874, “Comparative Pharmacokinetics of Cinobufacini Capsule and Injection by UPLC-MS/MS” (Frontiers in Pharmacology, 2022)
Where two headings read alike, the source gives them in different places.

Columns and labels:
[1] = Pharmacokinetic study in rats after oral administration of cinobufacini capsule (UPLC-MS/MS of plasma); assay type: in vivo, rat; conditions: male, Sprague-Dawley, in vivo, rat plasma, mean ± SD, n = 6; for CL/F: read-out: CLz/F (converted); for MRT last: read-out: MRT0-t; for MRT inf: read-out: MRT0-∞; for half-life: read-out: T1/2z (converted); for Vd/F: read-out: Vz/F
Summary of the method: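 Male SD rats (200–220 g), fasted 12 h, six per group; cinobufacini capsule given orally at three doses or injection intravenously. Retro-orbital plasma sampled 0.05–10 h, extracted with ethyl acetate plus internal standard, quantified by UPLC-MS/MS (ESI+, MRM); parameters calculated by non-compartmental-style software as mean ± SD.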

[2] = Stability of analytes in rat plasma QC samples under storage conditions; assay type: physicochemical; conditions: n = 6; for Stability during 24 h at 4°C, RE: post-treatment storage in autosampler; for −80°C for 30 days, RE / Three freeze–thaw cycles, RE: rat plasma; for −80°C for 30 days, RE: long-term; for Three freeze–thaw cycles, RE: −80°C to room temperature
Summary of the method: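 QC samples at low, medium and high levels (n=6) were tested after 24 h in the autosampler at 4 °C, after three freeze–thaw cycles from −80 °C to room temperature, and after 30 days at −80 °C. Concentrations were read from daily calibration curves. Stability was accepted when RE and RSD were within ±15% of nominal.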

[3] = Pharmacokinetic study in rats after intravenous administration of cinobufacini injection (UPLC-MS/MS of plasma); assay type: in vivo, rat; conditions: for concentrations in most rat plasma samples relative to LLOQ: after intravenous administration of cinobufacini injection, pharmacokinetic parameters could not be calculated; for detection in rat plasma: cinobufacini injection group, intravenous
Experimental: Male Sprague–Dawley rats (weighing 200–220 g) of SPF grade were offered by Sippr/BK laboratory Animal, Corp., Ltd. (Shanghai, China) and fed in the Laboratory Animal Center of the Shanghai University of Traditional Chinese Medicine. All the rats were kept under environmentally controlled conditions with constant temperature (22–24°C) and humidity (60–65%). The animal experiment program in the present research was approved by the Animal Committee of the Shanghai University of Traditional Chinese Medicine (PZSHUTCM210618012).
An Agilent 1290 liquid chromatographic system includes a G4220A quaternary pump, a G1326C column incubator, a G4226A automatic sampler, and a G1330B degasser. The column temperature was set to 35°C. A measure of 5 µL of samples were separated in an Agilent SB-C18 column (2.1 mm ×50 mm, 1.8 μm) and eluted at 0.3 ml/min, followed by gradient elution with water (0.1% V/V formic acid) (A) and acetonitrile (B) (0–1 min, 20%–20% B; 1–3.5 min, 20%–80% B; 4–4.1 min, 80%-20% B; 4.1–6 min, 20% B). The total run time was 6 minutes.
An Agilent 1290 Infinity series UPLC system was combined with an Agilent 6460 series triple quadrupole mass spectrometer (Agilent Technologies, Santa Clara, CA, United States) to quantify all 13 analytes in an ESI-positive ionization mode. Quantitative analysis was performed in an MRM mode. The mass spectrum conditions were as follows: capillary voltage, 4000V; drying gas (N2), gas flow rate: 10 L/min; sprayer, 30 psi; gas temperature 350°C; The delta EMV (+) 200 V; collision gas (N2); dwell time, 25 ms. Agilent’s MassHunter Workstation software was used for data collection, peak area calculation, and quantitative analysis.
A measure of 50 µL of the plasma sample was mixed with 10 µL of the internal standard solution (345 ng/ml) in a 1.5-ml centrifuge tube and vortexed for 5 min. The samples were extracted by 500 µL of ethyl acetate for 5 min and centrifuged at 4°C for 10 min (18000 rpm). All the supernatants were collected into another 1.5-ml centrifuge tube, dried under a gentle stream of nitrogen at 37°C, and then added with 50 µL of 80% methanol for resolution. The resolution samples were centrifuged at 4°C for 10 min (18000 rpm), and 5 µL supernatant was extracted and injected for analysis.
Twenty-four male Sprague–Dawley rats (weigh 200–220 g) were divided into four groups with six rats in each group randomly, including three capsule groups at three different doses and one injection group. In the instructions for cinobufacini capsule and injection, the clinical dosage for adults is 2 g per 70 kg orally and 20 ml per 70 kg intravenously, converting to rat doses of 180 mg/kg and 1.8 ml/kg, respectively.
In the pre-experiments, we compared cinobufacini capsule of 180 mg/kg (one-time clinical dose) and 900 mg/kg (five times of clinical dose) and Cinobufacini injection of 1.8 ml/kg, but concentrations of some compounds in plasma were too low and difficult to be quantified. […] The experimental rats were led to fast the night and were free to get access to water for 12 h before the pharmacokinetic study. After administration, blood samples (approximately 150 μL) of rats were collected via retro-orbital sinus into heparinized centrifuge tubes at 0.05, 0.083, 0.25, 0.5, 0.75, 1, 2, 4, 6, 8, and 10 h. After centrifugation at 5,000 rpm for 10 min, the plasma was transferred to 1.5-ml polypropylene tubes and stored at −80°C until UPLC-MS/MS analysis.
GraphPad Prism software (version 8.0.2) was used to draw the mean plasma concentration–time curves of all analytes. The pharmacokinetic parameters were calculated by DAS 3.2.8 software. Meanwhile, the pharmacokinetic data on rats were presented as mean ± standard deviation (SD). Differences of pharmacokinetic parameters between groups were analyzed by the t-test using SPSS software (version 26.0). Differences were considered significant statistically when the p-values were <0.05 and very significant statistically when the p-values were <0.01.

[4] = oral cinobufacini capsule 0.9 g/kg (low)
[5] = oral cinobufacini capsule 1.8 g/kg (medium)
[6] = oral cinobufacini capsule 3.6 g/kg (high)
[7] = high QC level (249.58–250.28 ng/ml)
[8] = medium QC level (49.92–50.06 ng/ml)

Structure (SMILES) | AUC(0-inf) [1, 4] | AUC(0-t) [1, 4] | Cmax [1, 4] | Tmax [1, 4] | CL/F [1, 4] | MRT last [1, 4] | MRT inf [1, 4] | half-life [1, 4] | Vd/F [1, 4] | AUC(0-inf) [1, 5] | AUC(0-t) [1, 5] | Cmax [1, 5] | Tmax [1, 5] | CL/F [1, 5] | MRT last [1, 5] | MRT inf [1, 5] | half-life [1, 5] | Vd/F [1, 5] | AUC(0-inf) [1, 6] | AUC(0-t) [1, 6] | other results
C[C@]12CC[C@H](O)C[C@H]1CC[C@@H]1[C@@H]2C(=O)[C@@H](O)[C@]2(C)[C@@H](c3ccc(=O)oc3)CC[C@]12O [PBG, pseudobufarenogin] | 13.8 ± 5.4 ng·h/mL | 13.3 ± 4.42 ng·h/mL | 9.3 ± 3.04 ng/mL | 0.25 h | 33.5 mL/min/kg | 2.4 ± 0.63 h | 2.76 ± 1 h | 1.52 ± 0.98 h | 7.15 ± 2.16 L/kg | 28.6 ± 6.25 ng·h/mL | 28.4 ± 6.26 ng·h/mL | 24.5 ± 7.32 ng/mL | 0.4 ± 0.22 h | 30.8 mL/min/kg | 1.49 ± 0.08 h | 1.54 ± 0.11 h | 1.03 ± 0.61 h | 2.65 ± 1.51 L/kg | 47.7 ± 9.78 ng·h/mL | 47.3 ± 9.4 ng·h/mL | Cmax [1, 6]: 42.8 ± 10.2 ng/mL; Tmax [1, 6]: 0.32 ± 0.12 h; CL/F [1, 6]: 36.7 mL/min/kg; MRT last [1, 6]: 1.47 ± 0.39 h; MRT inf [1, 6]: 1.57 ± 0.39 h; half-life [1, 6]: 1.96 ± 0.67 h; Vd/F [1, 6]: 5.65 ± 1.61 L/kg; Stability during 24 h at 4°C, RE [2, 7]: 10.2%; Stability during 24 h at 4°C, RE ([2]; low QC level (4.99–5.00 ng/ml)): 6.6%; Stability during 24 h at 4°C, RE [2, 8]: 12.0%; −80°C for 30 days, RE [2, 7]: 4.7%; −80°C for 30 days, RE ([2]; low QC level (4.99–5.00 ng/ml)): 8.3%; −80°C for 30 days, RE [2, 8]: 7.5%; Three freeze–thaw cycles, RE [2, 7]: 7.7%; Three freeze–thaw cycles, RE ([2]; low QC level (4.99–5.00 ng/ml)): 4.4%; Three freeze–thaw cycles, RE [2, 8]: 13.3%; concentrations in most rat plasma samples relative to LLOQ [3]: far below the LLOQs; detection in rat plasma [3]: could be detected
C[C@]12CC[C@H](O)C[C@H]1CC[C@@H]1[C@@H]2[C@H](O)C(=O)[C@]2(C)[C@@H](c3ccc(=O)oc3)CC[C@]12O [ABG, arenobufagin] | 15.5 ± 4.73 ng·h/mL | 15.5 ± 4.73 ng·h/mL | 13.8 ± 6.4 ng/mL | 0.45 ± 0.27 h | 109 mL/min/kg | 1.44 ± 0.58 h | 1.47 ± 0.6 h | 0.82 ± 0.66 h | 8.01 ± 5.68 L/kg | 45.9 ± 13.1 ng·h/mL | 44.1 ± 10.6 ng·h/mL | 36.7 ± 13.1 ng/mL | 0.32 ± 0.12 h | 71.2 mL/min/kg | 1.49 ± 1.03 h | 1.74 ± 1.29 h | 0.64 ± 0.16 h | 4.2 ± 1.25 L/kg | 87.6 ± 27.8 ng·h/mL | 87.3 ± 27.4 ng·h/mL | Cmax [1, 6]: 77.9 ± 24.2 ng/mL; Tmax [1, 6]: 0.32 ± 0.12 h; CL/F [1, 6]: 77.5 mL/min/kg; MRT last [1, 6]: 1.2 ± 0.26 h; MRT inf [1, 6]: 1.23 ± 0.31 h; half-life [1, 6]: 0.89 ± 0.64 h; Vd/F [1, 6]: 5.66 ± 3.45 L/kg; Stability during 24 h at 4°C, RE [2, 7]: −4.1%; Stability during 24 h at 4°C, RE ([2]; low QC level (4.99–5.00 ng/ml)): 7.4%; Stability during 24 h at 4°C, RE [2, 8]: −5.3%; −80°C for 30 days, RE [2, 7]: 2.3%; −80°C for 30 days, RE ([2]; low QC level (4.99–5.00 ng/ml)): 7.1%; −80°C for 30 days, RE [2, 8]: 8.3%; Three freeze–thaw cycles, RE [2, 7]: 0.7%; Three freeze–thaw cycles, RE ([2]; low QC level (4.99–5.00 ng/ml)): 2.5%; Three freeze–thaw cycles, RE [2, 8]: 3.3%; concentrations in most rat plasma samples relative to LLOQ [3]: far below the LLOQs; detection in rat plasma [3]: could be detected
